Patent publication EP4810493A1, “HETEROCYCLIC CARBONYL DERIVATIVE MODULATOR, PREPARATION METHOD THEREFOR, AND USE THEREOF” (Shanghai Hansoh Biomedical Co., Ltd., priority 2023, dated 2025)

System: not listed separately
Test: Pharmacokinetic determination in SD rats
Conditions: rat, in vivo, po; male SD rats, p.o. 5 mg/kg
Description: To investigate the pharmacokinetic behaviours of the example compounds in both plasma and brain of SD rats (test animals) following oral administration at a dose of 5 mg/kg.
2.1 Test drugs: The example compounds of the present invention, made in house.
2.2 Test animals: SD Rat, male.
24 SD Rats, male; p.o. respectively at a dose of 5 mg/kg and an administration volume of 10 mL/kg after the rats were fasted overnight.
Formulation of a drug for oral administration: 0.5% CMC-Na (1% Tween 80).
0.50 g of sodium carboxymethyl cellulose (CMC-Na, viscosity: 800-1200 Cps) was weighed and dissolved in 99 mL of purified water, and 1 ml of Tween 80 was added. The components were mixed thoroughly under stirring to form a clear solution.
The example compound was weighed into a 100 mL glass vial, 80 mL of the solution was added, and the mixture was subjected to ultrasound treatment for 10 minutes to obtain a homogeneous suspension with a concentration of 0.5 mg/mL.
After the test animals were euthanised by CO2, blood samples were collected from the heart and brain tissues were harvested at 0.25 h, 0.5 h, 1 h, 2 h, 4 h, 6 h, 8 h, and 24 h post-dose. Blood was placed in EDTA-2K tubes, and centrifuged at 6000 rpm for 6 min at 4°C to separate the plasma. Brain tissues were rinsed with pre-cold PBS, blotted dry, and weighed. Both plasma and brain samples were stored at -80°C. The animals were fed 4 h after administration.
• 3) 40 uL of plasma sample was precipitated with 160 uL of acetonitrile, mixed, and centrifuged at 3500 × g for 5-20 min. Brain tissues were diluted, homogenised and centrifuged. • 4) 100 uL of the treated supernatant solution was taken for LC/MS/MS analysis to determine the concentration of the test compounds.
• Liquid phase conditions: Shimadzu LC-20AD pump • Mass spectrometry conditions: AB Sciex API 4000 mass spectrometer • Chromatographic column: Phenomenex Gemiu 5 um C18 50 × 4.6 mm • Mobile phase: solution A: 0.1% formic acid in water, solution B: acetonitrile • Flow rate: 0.8 mL/min • Elution time: 0-4.0 min, with eluents as follows:
The main pharmacokinetic parameters were calculated using WinNonlin 8.1.

Structure (SMILES) | AUC(0-inf) | Cmax | Tmax
Cc1c2c(c3ccnn3c1C)CN(C(=O)OC1CN(c3ccnc(C(F)F)c3)C1)C2 [Example 142] | 9320 ng·h/mL | 1380 ng/mL | 2 h

Same assay, conditions: rat, in vivo, po; male SD rats, p.o. 5 mg/kg; read-out: MRT 0-∞

Structure (SMILES) | MRT inf
Cc1c2c(c3ccnn3c1C)CN(C(=O)OC1CN(c3ccnc(C(F)F)c3)C1)C2 [Example 142] | 4.4 h

Target: T1, M4 receptor (Homo sapiens, UniProt P08173)
T1 construct: expressed in transfected cells
T1 sequence (P08173 1-479): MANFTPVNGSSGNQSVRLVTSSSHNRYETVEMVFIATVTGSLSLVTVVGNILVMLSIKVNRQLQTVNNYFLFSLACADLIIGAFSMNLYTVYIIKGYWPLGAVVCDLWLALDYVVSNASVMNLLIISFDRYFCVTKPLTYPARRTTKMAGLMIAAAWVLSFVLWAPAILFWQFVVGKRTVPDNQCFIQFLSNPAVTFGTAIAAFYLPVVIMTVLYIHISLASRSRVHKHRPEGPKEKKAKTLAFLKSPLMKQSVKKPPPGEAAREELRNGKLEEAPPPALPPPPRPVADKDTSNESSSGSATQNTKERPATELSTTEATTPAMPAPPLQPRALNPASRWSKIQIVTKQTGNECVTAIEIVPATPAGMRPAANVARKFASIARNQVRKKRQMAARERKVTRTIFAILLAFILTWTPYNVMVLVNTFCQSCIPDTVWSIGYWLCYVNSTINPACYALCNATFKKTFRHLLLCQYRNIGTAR
Test: Calcium flux (FLIPR) potentiation assay in cells stably expressing M4 receptor
Format: cell-based
Conditions: not given
Source text: Test example 1. Determination of the effect of the compounds of the present invention on calcium current in cells stably expressing M1-M5 receptors
To detect the potentiating effect of compounds on calcium flux activity in CHO-K1/human M1/3/5 and CHO-K1/Gα15 M2/4 cells.
384-well assay plate, 384-well plate, FLIPR Tip, FLIPR Penta plate reader, Dispendix non-contact nanoliter dispensing system (liquid handling workstation), liquid handler.
Ham's F-12 Nutrient Mix, foetal bovine serum, P/S (Gibco: 15140122), HBSS (Gibco: 14025076), HEPES (Gibco: 15630080), FLIPR calcium 6 assay kit (Molecular Devices: R8190), Probenecid (PBA) (Invitrogen: P36400), Acetylcholine chloride (Sigma: A6625-25G) Complete culture medium: DMEM + 10% FBS + 1X P/S; Cell seeding medium: DMEM + 10% FBS + 1X PS; Assay buffer 1: 1X HBSS + 20 mM HEPES +2.5 mM Probenecid; Assay buffer 2: 1X HBSS + 20 mM HEPES; Cell line: CHO-K1/M1; CHO-K1/M2/Gα15; CHO-K1/M3; CHO-K1/M4/Gα15; CHO-K1/M5.
FLIPR calcium 6 assay kit: Component A was dissolved in Assay buffer 1, and the mixture was shaken for 1-2 min, sub-packaged and stored at -20°C.
• 1) CHO-K1/M1; CHO-K1/M2/Gα15; CHO-K1/M3; CHO-K1/M4/Gα15; and CHO-K1/M5 cell lines were cultured separately in complete culture medium at 37°C, 5% CO2 to 70%-90% confluency. • 2) The cells were digested and resuspended in cell seeding medium, 5,000 cells/well/20 µL were seeded into a 384-well cell culture plate, and the cells were cultured at 37°C, 5% CO2 for 24 hours. • 3) The cell culture plate was taken out of the CO2 incubator and equilibrated at room temperature for 10 minutes. • 4) Component A solution was removed and allowed to equilibrate to room temperature. 20 µL of Component A solution was added to each well of the cell culture plate, and incubated at room temperature in the dark for 1 hour. • 5) Acetylcholine chloride (ACh), a muscarinic receptor agonist, was prepared in Assay buffer 2 at EC20/EC100 concentrations; subsequently, 30 µL of the prepared muscarinic receptor agonist was added to a 384-well agonist plate (PE: 6008590) using a Multidrop Combi; the working solutions of the positive control compound and the test compound were serially diluted at a 3.16-fold gradient and dispensed (450 nL) into a 384-well compound plate (PE: 6008590) using the Dispendix liquid handling workstation; 30 µL of Assay buffer 2 was added to the 384-well compound plate (PE: 6008590) using the Multidrop Combi; the positive control compound and the test compound were diluted to 6X, mixed by shaking, and placed at room temperature until use. • 6) 10 µL of the diluted 6X compound was added to the assay wells of the corresponding 384-well cell plate using the FLIPR Penta, followed by a 2-minute incubation. • 7) 10 µL of the prepared muscarinic receptor agonist was added to the assay wells of the corresponding 384-well cell plate using the FLIPR Penta, with simultaneous data acquisition.
FLIPR Penta was used to read and collect the fluorescence signal value (RFU). The maximum RFU value was used to calculate the percent activation data based on the readings of the Low control (DMSO control group) and High control (ACh EC100) experimental groups {% activation rate = (RFUsample - RFUlow control) / (RFUhigh control - RFUlow control)×100}. The test compound was diluted 3.16X in the reaction system to generate 11 concentration points ranging from 30 µM to […].

Structure (SMILES) | EC50
Cc1cn2nc(N3CC(CC(=O)N4Cc5c(C)c(C)n6ncnc6c5C4)C3)ccc2n1 [Example 55] | 0.0181 µM
Cc1c2c(c3nccn3c1C)CN(C(=O)CC1CC1c1ccc(F)nc1)C2 (stereo not drawn) [Example 104] | 0.0538 µM
Cc1c2c(c3ncnn3c1C)CN(C(=O)OC1CN(c3cc(Cl)ncc3Cl)C1)C2 [Example 187] | 0.0282 µM

Same assay, conditions: CHO-K1/M4/Gα15 cells; potentiation of acetylcholine (EC20) calcium flux; read-out: M4 FLIPR EC50

Structure (SMILES) | EC50
Cc1c2c(c3ncnn3c1C)CN(C(=O)C1CC(Nc3ccnc(C(F)(F)F)c3)C1)C2 (stereo not drawn) [Example 284-P2, (5,6-Dimethyl-7,9-dihydro-8H-pyrrolo[3,4-c][1,2,4]triazolo[1,5-a]pyridin-8-yl)(3-((2-(trifluoromethyl)pyridin-4-yl)amino)cyclobutyl)methanone] | 0.0597 µM
Cc1c2c(c3nnnn3c1C)CN(C(=O)CC1CN(c3ccnc(C(F)(F)F)c3)C1)C2 [Example 148] | 0.0377 µM
Cc1c2c(c3ccnn3c1C)CN(C(=O)CC1CN(c3ccc4nc(C(F)(F)F)cn4n3)C1)C2 [Example 227] | 0.0904 µM
Cc1c2c(c3ncnn3c1C)CN(C(=O)CC1CN(c3ccc(C4CC4)nc3)C1)C2 [Example 312] | 0.0151 µM
Cc1c2c(c3ncnn3c1C)CN(C(=O)CC1CN(c3ccc4nc(C(F)(F)F)cn4n3)C1)C2 [Example 213] | 0.0124 µM
Cc1c2c(c3ncnn3c1C)CN(C(=O)CC1CN(c3ccc4c(cnn4C4CC4)c3)C1)C2 [Example 306] | 0.0111 µM
Cc1c2c(c3nccn3c1C)CN(C(=O)OC1CN(c3ccnc(OC(F)F)c3)C1)C2 [Example 72] | 0.0875 µM
Cc1c2c(c3nc(C4CC4)nn3c1C)CN(C(=O)CC1CN(c3ccnc(C(F)(F)F)c3)C1)C2 [Example 143] | 0.0309 µM
Cc1nc2c3c(c(C)c(C)n2n1)CN(C(=O)[C@@H]1CCN(c2ccncn2)C1)C3 [Example 232] | 0.0364 µM
Cc1c2c(c3nccn3c1C)CN(C(=O)CC1CN(c3ccnc(OC(F)F)c3)C1)C2 [Example 70] | 0.0736 µM
COc1ccc(N2CC(CC(=O)N3Cc4c(C)c(C)n5ncnc5c4C3)C2)cn1 [Example 264] | 0.0478 µM
Cc1ccc(N2CC(CC(=O)N3Cc4c(C)c(C)n5ncnc5c4C3)C2)cn1 [Example 318] | 0.0112 µM
Cc1nc2c3c(c(C)c(C)n2n1)CN(C(=O)CC1CN(c2ccnc(OC4CC4)c2)C1)C3 [Example 230] | 0.0163 µM
Cc1c2c(c3ncnn3c1C)CN(C(=O)CC1CN(c3ccc(C(F)(F)F)cn3)C1)C2 [Example 217] | 0.0997 µM
Cc1c2c(n3ncnc3c1Cl)CN(C(=O)CC1CN(c3ccnc(C(F)(F)F)c3)C1)C2 [Example 293, 1-(4-Chloro-5-methyl-7,8-dihydro-6H-[1,2,4]triazolo[5,1-f]pyrrolo[4,3-b]pyridin-7-yl)-2-{1-[2-(trifluoromethyl)pyridin-4-yl]azetidin-3-yl}ethan-1-one] | 0.0997 µM
COc1cc(N2CC(CC(=O)N3Cc4c(C)c(C)n5nccc5c4C3)C2)c(F)cn1 [Example 220] | 0.0535 µM

Structure (SMILES) | EC50
Cc1nc2c3c(c(C)c(C)n2n1)CN(C(=O)C1CCN(c2ccncn2)C1)C3 (stereo not drawn) [Example 140] | 0.0517 µM
CCc1ccc(N2CC(CC(=O)N3Cc4c(C)c(C)n5ncnc5c4C3)C2)cn1 [Example 313] | 0.0104 µM
Cc1c2c(c3ncnn3c1C)CN(C(=O)CC1CN(c3cnc4c(c3)CCCO4)C1)C2 [Example 302] | 0.0232 µM
Cc1nc(Cl)c(C)c(N2CC(CC(=O)N3Cc4c(C)c(C)n5ncnc5c4C3)C2)n1 [Example 226] | 0.0299 µM
Cc1c2c(c3ncnn3c1C)CN(C(=O)c1ccc(F)c(Cl)c1)C2 [Example 29] | 0.037 µM
Cc1c2c(c3ncnn3c1C)CN(C(=O)C1CC(Nc3ncc(C(F)(F)F)cn3)C1)C2 (stereo not drawn) [Example 299, (5,6-Dimethyl-7,9-dihydro-8H-pyrrolo[3,4-c][1,2,4]triazolo[1,5-a]pyridin-8-yl)(3-((5-(trifluoromethyl)pyrimidin-2-yl)amino)cyclobutyl)methanone] | 0.0268 µM
Cc1c2c(c3nccn3c1C)CN(C(=O)OC1CN(c3ccnc(C(F)(F)F)c3)C1)C2 [Example 71] | 0.0719 µM
Cc1cn2cc(N3CC(OC(=O)N4Cc5c(C)c(C)n6ncnc6c5C4)C3)ccc2n1 [Example 178] | 0.0838 µM
Cc1c2c(c3ccnn3c1C)CN(C(=O)CC1CN(c3ccnc(OCC(F)F)c3)C1)C2 [Example 203] | 0.09 µM
Cc1c2c(c3ncnn3c1C)CN(C(=O)CC1CN(c3ccc(OC(F)F)nc3)C1)C2 [Example 305] | 0.0068 µM
Cc1c2c(c3nc(N)nn3c1C)CN(C(=O)CC1CN(c3ccnc(OC(F)F)c3)C1)C2 [Example 181] | 0.0259 µM
CCn1ccc2cc(N3CC(CC(=O)N4Cc5c(C)c(C)n6ncnc6c5C4)C3)ccc21 [Example 310] | 0.0912 µM
Cc1c2c(c3ncnn3c1C)CN(C(=O)CC1CN(c3cc(Cl)ncc3Cl)C1)C2 [Example 146] | 0.0124 µM
COc1nccc(N2CC(OC(=O)N3Cc4c(C)c(C)n5ncnc5c4C3)C2)n1 [Example 239] | 0.0426 µM
Cc1c2c(c3ncnn3c1C)CN(C(=O)CC1CN(c3ccnc(OCC(F)(F)F)c3)C1)C2 [Example 186] | 0.0288 µM
Cc1c2c(c3ncnn3c1C)CN(C(=O)CC1CN(c3ncc(C4CC(F)(F)C4)cn3)C1)C2 [Example 320] | 0.0341 µM
